Measured values reported in ChEMBL document CHEMBL3286361, “Design and discovery of flavonoid-based HIV-1 integrase inhibitors targeting both the active site and the interaction with LEDGF/p75” (Bioorg Med Chem, 2014).
Values after ≈ are worked out from the molar mass of the structure shown.

How the values were obtained:
[1] = target: T1, Human immunodeficiency virus type 1 integrase (Human immunodeficiency virus 1, UniProt Q7ZJM1); experiment: Inhibition of recombinant HIV-1 integrase 3'-processing activity using 32P 5' end-labeled linear 21'mer as substrate preincubated for 30 mins prior to substrate challenge by phosphorimaging analysis
[2] = target: T1, Human immunodeficiency virus type 1 integrase; experiment: Inhibition of recombinant HIV-1 integrase strand transfer activity using 32P 5' end-labeled linear 21'mer as substrate preincubated for 30 mins prior to substrate challenge by phosphorimaging analysis
[3] = system: Human immunodeficiency virus 1; experiment: Antiviral activity against HIV-1 3B infected in human C8166 cells assessed as inhibition of virus-induced cytopathogenicity by measuring syncytial cell number after 3 days by inverted microscopic analysis; assay type: functional, organism-based; settings: Human immunodeficiency virus 1, 3B, C8166, 72 h
[4] = Cytotoxicity against human C8166 cells assessed as inhibition of cell proliferation after 72 hrs by MTT assay; assay type: cell-based
[5] = Therapeutic index, ratio of CC50 for human C8166 cells to EC50 for HIV-1 3B infected in human C8166 cells; assay type: cell-based; settings: HIV-1 3B infected C8166 cells, read-out: Ratio CC50/EC50
[6] = target: T1, Human immunodeficiency virus type 1 integrase; experiment: Inhibition of His6-tagged HIV-1 integrase assessed as decrease in integrase-Flag-LEDGF/p75 interaction preincubated with enzyme for 30 mins followed by addition of Flag-LEDGF/p75 for 1 hr by AlphaScreen assay

T1 sequence (Q7ZJM1 whole entry): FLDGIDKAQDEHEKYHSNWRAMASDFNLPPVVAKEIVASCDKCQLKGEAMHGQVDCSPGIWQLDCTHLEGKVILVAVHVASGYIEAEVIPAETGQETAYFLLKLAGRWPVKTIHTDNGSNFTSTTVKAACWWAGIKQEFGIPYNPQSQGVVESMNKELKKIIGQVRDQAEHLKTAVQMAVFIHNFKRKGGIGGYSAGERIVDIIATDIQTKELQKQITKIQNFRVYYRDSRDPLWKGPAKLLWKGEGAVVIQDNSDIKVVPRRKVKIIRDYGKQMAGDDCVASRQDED

| Structure (SMILES) | IC50 [1] [µM] | IC50 [2] [µM] | EC50 [3] [µg/mL] | CC50 at 72 h [4] [µg/mL] | selectivity ratio [5] | IC50 [6] [µM] |
| --- | --- | --- | --- | --- | --- | --- |
| O=c1cc(-c2ccccc2)oc2cc(OCc3ccc(F)cc3)c(O)c(O)c12 | > 20 | 7 | 3.04 (≈ 8.03 µM) | 5.8 (≈ 15.3 µM) | 2 | > 20 |
| CC(C)(C)Oc1cc(O)c2c(c1)O[C@H](c1ccc(O)cc1)CC2=O | > 100 | > 100 | 3.05 (≈ 9.29 µM) | 25.4 (≈ 77.4 µM) | 8 | > 20 |
| O=c1cc(-c2ccc(O)cc2)oc2cc(O)cc(O)c12 [APIGENIN] | > 20 | > 20 | 4.46 (≈ 16.5 µM) | 17.2 (≈ 63.6 µM) | 4 | 1.5 |
| O=c1cc(-c2ccccc2)oc2cc(OCc3ccc(F)cc3)cc(O)c12 | > 20 | > 20 | > 8.35 | 8.35 (≈ 23 µM) | – | > 20 |
| CC(C)(C)Oc1cc2oc(-c3ccccc3)cc(=O)c2c(O)c1O | > 100 | > 100 | 8.45 (≈ 25.9 µM) | 40.5 (≈ 124 µM) | 5 | > 20 |
| O=c1cc(-c2ccc(O)cc2)oc2cc(N3CCOCC3)cc(O)c12 | > 20 | > 20 | 68.4 (≈ 202 µM) | 105 (≈ 311 µM) | 1.5 | 1.7 |
| O=c1c(O)c(-c2ccc(O)c(O)c2)oc2cc(O)cc(OCc3ccc(F)cc3)c12 | > 20 | 7.6 | 4.54 (≈ 11.1 µM) | 24 (≈ 58.5 µM) | 5 | 1.8 |
| O=c1c(O)c(-c2ccc(OCc3ccc(F)cc3)c(O)c2)oc2cc(O)cc(O)c12 | > 20 | > 20 | 4.1 (≈ 9.99 µM) | 23.4 (≈ 57 µM) | 6 | 1.4 |
| O=c1cc(-c2ccccc2)oc2cc(O)cc(O)c12 [CHRYSIN] | > 20 | > 20 | 13.4 (≈ 52.7 µM) | 110 (≈ 433 µM) | 8 | 1.4 |
| O=c1c(O)c(-c2ccc(O)c(O)c2)oc2cc(N3CCOCC3)cc(O)c12 | > 20 | > 20 | 5.05 (≈ 13.6 µM) | 24.7 (≈ 66.5 µM) | 5 | 0.97 |
| CC(C)(C)Oc1cc(O)c2c(=O)cc(-c3ccc(O)cc3)oc2c1 | > 20 | > 20 | 3.2 (≈ 9.81 µM) | 25 (≈ 76.6 µM) | 8 | > 20 |
| O=c1cc(-c2ccccc2)oc2cc(O)c(O)c(O)c12 [BAICALEIN] | – | – | 1.67 (≈ 6.18 µM) | 30.3 (≈ 112 µM) | – | – |
| O=c1c(O)c(-c2ccc(O)c(O)c2)oc2cc(O)cc(O)c12 [QUERCETIN] | > 20 | 8 | 2.05 (≈ 6.78 µM) | 105 (≈ 347 µM) | 44 | 0.6 |
| CC(C)(C)Oc1cc(O)c2c(=O)c(-c3ccc(O)cc3)coc2c1 | > 100 | 70 | > 47.7 | 47.7 (≈ 146 µM) | – | > 20 |
| O=c1cc(-c2ccc(O)c(O)c2)oc2cc(N3CCOCC3)cc(O)c12 | > 20 | > 20 | 2.21 (≈ 6.22 µM) | 63.6 (≈ 179 µM) | 29 | 1.6 |
| O=c1c(-c2ccc(O)cc2)coc2cc(N3CCOCC3)cc(O)c12 | > 20 | > 20 | 0.826 (≈ 2.43 µM) | > 200 | > 242 | 1.7 |
| O=c1c(O)c(-c2ccc3c(c2)OC(c2ccccc2)(c2ccccc2)O3)oc2cc(O)cc(O)c12 | > 20 | > 20 | – | – | – | > 20 |
| O=c1c(OCc2ccc(F)cc2)c(-c2ccc(O)c(O)c2)oc2cc(O)cc(O)c12 | > 20 | > 20 | 1.95 (≈ 4.75 µM) | 22.5 (≈ 54.8 µM) | 12 | 0.38 |
| O=C1C[C@@H](c2ccc(O)cc2)Oc2cc(OCc3ccc(F)cc3)cc(O)c21 | > 100 | > 100 | 2.06 (≈ 5.42 µM) | 11.5 (≈ 30.2 µM) | 6 | – |
| O=c1cc(-c2ccc(O)c(O)c2)oc2cc(OCc3ccc(F)cc3)cc(O)c12 | > 20 | > 20 | 7.37 (≈ 18.7 µM) | 16.2 (≈ 41.1 µM) | 2 | – |
| O=c1cc(-c2ccc(O)cc2)oc2cc(OCc3ccc(F)cc3)cc(O)c12 | 80 | 35 | 10.7 (≈ 28.3 µM) | 16.8 (≈ 44.4 µM) | 1.6 | > 20 |
| O=c1c(O)c(-c2ccc(O)c(O)c2)oc2cc(OCc3ccc(F)cc3)cc(O)c12 | 20 | 4 | > 5.68 | 5.68 (≈ 13.8 µM) | – | 0.94 |
| O=C1C[C@@H](c2ccc(O)cc2)Oc2cc(O)cc(O)c21 [NARINGENIN] | > 20 | > 20 | 9.47 (≈ 34.8 µM) | 142 (≈ 520 µM) | 15 | 1.7 |
| O=c1cc(-c2ccc(O)c(O)c2)oc2cc(O)cc(O)c12 [LUTEOLIN] | > 20 | 8.9 | 2.48 (≈ 8.66 µM) | 17.9 (≈ 62.5 µM) | 7 | 0.45 |
| CC(C)(C)Oc1cc(O)c2c(=O)cc(-c3ccccc3)oc2c1 | > 100 | 50 | 12.1 (≈ 39 µM) | 61.2 (≈ 197 µM) | 5 | > 20 |
| O=c1cc(-c2ccccc2)oc2cc(N3CCOCC3)cc(O)c12 | > 20 | > 20 | > 200 | > 200 | – | > 20 |
| O=c1c(-c2ccc(O)cc2)coc2cc(O)cc(O)c12 [GENISTEIN] | > 20 | > 20 | 13.9 (≈ 51.4 µM) | 36.2 (≈ 134 µM) | 3 | 1.1 |
| O=c1c(-c2ccc(O)cc2)coc2cc(OCc3ccc(F)cc3)cc(O)c12 | > 100 | 80 | 11 (≈ 29.1 µM) | > 200 | > 18 | > 20 |
| O=c1c(O)c(-c2ccc(O)c(OCc3ccc(F)cc3)c2)oc2cc(O)cc(O)c12 | > 20 | > 20 | 0.47 (≈ 1.15 µM) | 23.8 (≈ 58 µM) | 51 | 1.8 |
